Experimental data published in patent US20160192643A1, “NEW ANTIFUNGAL COMPOSITION FOR TREATMENT OF SOIL” (CERADIS B.V., priority 2013, published 2016).

Columns and labels:
[1] = neutral aqueous systems; cited from earlier work
[2] = test system: Agaricus bisporus; experiment: Polyelectrolyte formulation applied on mushroom growth substrate: total yield of mushrooms; format: in vivo; conditions: natamycin 500 ppm where present
Description: Naturally contaminated Phase III compost inoculated with mushroom spawn of the edible mushroom species Agaricus bisporus prepared using well known methods was obtained from a local Dutch grower
Formulations described in Table 3 were generated as described in Example 1 for CitoCal.
Boxes with a size of 30 (1)×25 (b)×10 (h) cm were filled with the Phase III compost and incubated for 4 days at a temperature of 21° C. in the dark. After this incubation period, the white mushroom mycelium was visible on the surface of the compost. The compost was covered with 3 cm of casing prepared using well known methods after which 30 ml of the different formulations was sprayed onto the casing. Each formulation was examined in duplicate. The next day, 200 ml of water was added to each box after which the boxes were incubated for 7 days at 21° C. in the dark allowing the mycelium to grow to the surface of the casing. After this period the white mushroom mycelium was visible at the surface of the casing. The boxes were further incubated in the dark at a temperature of 18° C.
Dehydration of the casing surface was prevented by spraying sufficient and equal amounts of water (circa 10 ml) onto the casing in each box every few days using well known methods. […] During a period of 46 days mushrooms were harvested every day; the total yield was determined by measuring the weight of the mushrooms.

[3] = test system: most fungi; conditions: cited from earlier work
[4] = test system: Pythium aphanidermatum; experiment: Polyelectrolyte formulation against Pythium aphanidermatum in Chrysanthemum soil
Description: Soil was artificially infected with Pythium aphanidermatum spores using well known methods. Crates of 40×60 cm each were filled with infected soil. Transplants of Chrysanthemum were planted after the artificial infection. Each plot consisted of 2 crates with each 15 plants (30 plants per plot). The trial was conducted in four replicates. A single application was done just after transplant by spraying the AllyloCal polyelectrolyte complex over the crop at 1000 l/ha. Immediately after the treatment, the products were rinsed in the soil with 3 liter of water per m^2. The applied concentration in the spray suspension was 1000 ppm of natamycin. After 10 days the numbers of healthy, diseased and dead plants were counted.
At the end of the trial, after 44 days, the average plant height, the average plant weight and the rooting (in percentage of the bottom of the crates covered with roots) were measured.

[5] = 10 days after infection, n = 120, single spray at 1000 l/ha, 1000 ppm natamycin
[6] = compared with the untreated plants (n = 120), after 44 days
[7] = end of the trial, after 44 days

C[C@@H]1C/C=C/C=C/C=C/C=C/[C@H](O[C@@H]2O[C@H](C)[C@@H](O)[C@H](N)[C@@H]2O)C[C@@H]2O[C@](O)(C[C@@H](O)C[C@H]3O[C@@H]3/C=C/C(=O)O1)C[C@H](O)[C@H]2C(=O)O [Natamycin, natamycin]
solubility [1]: 30-40 ppm | Total yield (gram/2 boxes) ([2]; total mushroom weight after 46 days of incubation, 30 ml formulation sprayed onto casing, naturally contaminated Phase III compost): 359 gram/2 boxes | Yield increase (%) ([2]; versus Control, 46 days of incubation): −1.4% | Minimal Inhibitory Concentration (MIC) [3]: less than 10 ppm | Dead plants (%) [4, 5]: 6% | Diseased plants (%) [4, 5]: 34% | Healthy plants (%) [4, 5]: 60% | Percentage improvement of plant height (%) [4, 6]: 5.5% | Percentage improvement of plant rooting (%) [4, 6]: 2.3% | Percentage improvement of plant weight (%) [4, 6]: 3.9% | average plant height [4, 7]: 59.9 cm | average plant weight [4, 7]: 43.1 grams
